How the values were obtained:
[1] = target: T1, NET (h) (antagonist radioligand) (Homo sapiens, UniProt P23975); assay: Radioligand binding panel (Eurofins/CEREP), NET; conditions: % inhibition of control specific binding
T1 construct: CEREP (Eurofins, France), contract panel
Description: (§1) Benedin was tested at 10^−5 M, calculated as a % inhibition of control specific binding of a radioactively labeled ligand specific for each target.
(§2) This binding profile panel was broadly defined with roughly an equal number of selective, central and peripheral therapeutically relevant targets, including native animal tissues, radioligands and specific enzymes involved in cell cycle regulation in accordance with Eurofins Standard Operating Procedure.
(§3) For radioligand binding experiments, the half maximal inhibitory concentration (IC50) and the half maximal effective concentration (EC50) values were determined (via computer software) by nonlinear regression analysis of the competition curves using Hill equation curve fitting. The inhibition constants (Ki) were calculated using the Cheng-Prusoff equation (Ki=IC50/(1+(L/KD)), where L is the concentration of radioligand in the assay, and KD is the affinity of the radioligand for the receptor.^60
(§4) The results are expressed as a % control specific binding ([measured specific binding/control specific binding]×100) and as a % inhibition of control specific binding (100−[(measured specific binding/control specific binding)×100] obtained in the presence of the test compounds. […]

[2] = target: T2, mu (h) (MOP) (agonist radioligand) (Homo sapiens, UniProt P35372); assay: Radioligand binding panel (Eurofins/CEREP), mu opioid; conditions: 10^−5 M; % inhibition of control specific binding; read-out: % Inhibition at 10^−5M Benedin
T2 construct: CEREP (Eurofins, France), contract panel
Description: as §1, §2, §3, §4

[3] = target: RXFP4 (h) (agonist radioligand) (Homo sapiens, UniProt Q8TDU9); assay: GPCR Biosensor cAMP Hunter assay, RXFP4; type: cell-based
Description: Benedin is found to weakly bind with RXFP4 and RXFP3 receptors (Study FR095-0024749-Q Eurofins/leadHunter Jun. 25, 2021; unpublished data) (Table 2).
In these assays' compounds were tested in agonist and antagonist mode with the GPCR Biosensor Assays and match to this design:
1. cAMP Hunter cell lines were expanded from freezer stocks according to standard procedures.
2. Cells were seeded in a total volume of 20 μL into white walled, 384-well microplates and incubated at 37° C. for the appropriate time prior to testing.
3. cAMP modulation was determined using the DiscoverX HitHunter CAMP XS+assay.
1. For agonist determination, cells were incubated with sample in the presence of EC80 forskolin to induce response.
2. Media was aspirated from cells and replaced with 15 μL 2:1 HBSS/10 mM Hepes: CAMP XS+Ab reagent. […]
2. Microplates were read following signal generation with a PerkinElmer Envision™ instrument for chemiluminescent signal detection.
5. For Gi agonist mode assays, percentage activity is calculated using the following formula: % Activity=100%×(1−(mean RLU of test sample-mean RLU of MAX control)/(mean RLU of vehicle control−mean RLU of MAX control)).
8. For Gi antagonist or negative allosteric mode assays, percentage inhibition is calculated using the following formula: % Inhibition=100%×(mean RLU of test sample−mean RLU of EC80 control)/(mean RLU of forskolin positive control−mean RLU of […]

[4] = target: T3, M3 (h) (antagonist radioligand) (Homo sapiens, UniProt P20309); assay: Radioligand binding panel (Eurofins/CEREP), M3; conditions: 10^−5 M; % inhibition of control specific binding; read-out: % Inhibition at 10^−5M Benedin
T3 construct: CEREP (Eurofins, France), contract panel
Description: as §1, §2, §3, §4

[5] = target: T4, Kappa (h) (KOP) (agonist radioligand) (Homo sapiens, UniProt P41145); assay: Radioligand binding panel (Eurofins/CEREP), kappa opioid; conditions: 10^−5 M; % inhibition of control specific binding; read-out: % Inhibition at 10^−5M Benedin
T4 construct: CEREP (Eurofins, France), contract panel
Description: as §1, §2, §3, §4

[6] = 10^−5 M, read-out: % Inhibition at 10^−5M Benedin

T1 sequence (P23975 whole entry): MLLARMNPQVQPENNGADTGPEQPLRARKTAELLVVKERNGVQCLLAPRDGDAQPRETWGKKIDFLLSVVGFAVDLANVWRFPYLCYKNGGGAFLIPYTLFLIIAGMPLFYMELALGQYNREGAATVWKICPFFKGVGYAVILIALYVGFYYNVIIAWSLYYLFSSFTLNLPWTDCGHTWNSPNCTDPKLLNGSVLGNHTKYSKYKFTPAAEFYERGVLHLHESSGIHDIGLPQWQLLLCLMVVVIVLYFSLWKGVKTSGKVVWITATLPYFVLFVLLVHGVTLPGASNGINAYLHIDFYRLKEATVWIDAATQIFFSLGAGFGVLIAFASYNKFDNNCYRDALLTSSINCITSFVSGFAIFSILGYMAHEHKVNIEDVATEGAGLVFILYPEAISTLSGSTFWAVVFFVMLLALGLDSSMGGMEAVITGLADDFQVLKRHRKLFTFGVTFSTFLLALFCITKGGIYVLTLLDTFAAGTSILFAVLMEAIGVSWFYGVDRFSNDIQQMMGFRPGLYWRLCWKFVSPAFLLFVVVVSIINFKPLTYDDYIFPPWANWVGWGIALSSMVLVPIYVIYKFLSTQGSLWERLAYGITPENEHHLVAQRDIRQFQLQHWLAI
Chain of RXFP4 (h) (agonist radioligand) (Q8TDU9 whole entry): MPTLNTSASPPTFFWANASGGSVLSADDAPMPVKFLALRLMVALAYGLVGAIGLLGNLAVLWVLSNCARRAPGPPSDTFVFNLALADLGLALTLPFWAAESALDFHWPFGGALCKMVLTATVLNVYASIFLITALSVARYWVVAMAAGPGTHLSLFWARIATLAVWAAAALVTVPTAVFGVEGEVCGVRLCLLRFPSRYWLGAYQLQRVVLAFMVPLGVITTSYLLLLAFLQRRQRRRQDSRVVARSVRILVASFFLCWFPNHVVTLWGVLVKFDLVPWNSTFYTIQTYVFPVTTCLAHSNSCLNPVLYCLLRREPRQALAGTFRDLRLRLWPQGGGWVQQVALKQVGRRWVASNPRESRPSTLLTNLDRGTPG
T2 sequence (P35372 whole entry): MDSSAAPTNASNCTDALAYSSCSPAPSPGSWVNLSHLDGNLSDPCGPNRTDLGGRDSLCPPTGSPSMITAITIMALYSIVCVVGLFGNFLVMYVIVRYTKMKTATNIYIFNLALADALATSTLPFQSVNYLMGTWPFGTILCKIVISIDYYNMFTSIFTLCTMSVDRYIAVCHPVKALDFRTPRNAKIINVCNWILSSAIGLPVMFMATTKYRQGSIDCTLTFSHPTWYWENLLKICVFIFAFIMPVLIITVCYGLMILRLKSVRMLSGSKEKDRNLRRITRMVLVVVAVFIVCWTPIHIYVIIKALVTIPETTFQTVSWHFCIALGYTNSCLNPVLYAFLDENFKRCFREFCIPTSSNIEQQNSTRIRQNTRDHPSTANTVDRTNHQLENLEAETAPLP
T3 sequence (P20309 whole entry): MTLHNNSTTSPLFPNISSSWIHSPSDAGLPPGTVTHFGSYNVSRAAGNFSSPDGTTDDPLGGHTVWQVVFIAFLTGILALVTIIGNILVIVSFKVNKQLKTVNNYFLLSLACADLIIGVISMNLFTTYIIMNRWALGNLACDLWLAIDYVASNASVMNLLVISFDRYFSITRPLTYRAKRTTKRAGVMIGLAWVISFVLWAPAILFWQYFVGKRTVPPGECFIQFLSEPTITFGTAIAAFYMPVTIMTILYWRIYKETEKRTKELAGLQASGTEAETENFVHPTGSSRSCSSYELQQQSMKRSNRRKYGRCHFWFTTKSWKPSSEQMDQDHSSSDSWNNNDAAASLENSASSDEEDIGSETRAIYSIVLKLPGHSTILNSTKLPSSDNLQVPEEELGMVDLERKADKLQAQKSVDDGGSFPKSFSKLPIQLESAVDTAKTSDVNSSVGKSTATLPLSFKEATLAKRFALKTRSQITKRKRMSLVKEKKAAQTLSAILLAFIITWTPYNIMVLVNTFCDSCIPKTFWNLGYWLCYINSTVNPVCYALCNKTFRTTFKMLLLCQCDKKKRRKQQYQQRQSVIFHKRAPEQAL
T4 sequence (P41145 whole entry): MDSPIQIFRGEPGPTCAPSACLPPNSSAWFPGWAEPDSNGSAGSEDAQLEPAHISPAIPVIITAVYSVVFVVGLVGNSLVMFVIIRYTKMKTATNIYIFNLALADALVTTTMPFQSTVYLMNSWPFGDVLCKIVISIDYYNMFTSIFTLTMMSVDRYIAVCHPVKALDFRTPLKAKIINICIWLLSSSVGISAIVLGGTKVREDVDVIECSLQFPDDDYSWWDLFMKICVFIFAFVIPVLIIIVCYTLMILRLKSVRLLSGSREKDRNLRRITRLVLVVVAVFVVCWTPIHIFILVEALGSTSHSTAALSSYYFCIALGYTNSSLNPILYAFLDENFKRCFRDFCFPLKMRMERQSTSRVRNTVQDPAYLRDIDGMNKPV

## CN1CCCC(O)C1C(c1ccccc1)c1ccccc1 (stereo not shown) [Benedin, 2-benzhydryl-3-hydroxy-N-methyl-piperidine]
[1]; [6]
  inhibition at 10 µM: 71.9%
[1]
  % Inhibition at 10^−5M Benedin: appreciable potencies
[2]
  inhibition at 10 µM: 24.4%
[3]
  % Inhibition at 10^−5M Benedin: weakly bind
[3]; [6]
  inhibition at 10 µM: 26.3%
[4]
  inhibition at 10 µM: 44.6%
[5]
  inhibition at 10 µM: 39.2%
